The series can be described thus: Ipratropium climate stability tests (fine particle dose out of HandiHaler, Andersen impactor). The note with it: Atrovent powder, 1 month at 25° C./60% Rh or 40° C./75% Rh, FIG. 4.

This is an account of results in patent publication US20050287078A1, “Minimizing powder retention on surfaces” (MEDERIO AG, priority 2004, published 2005).

Experimental: The powder was withdrawn from the originator's capsules and transferred to the capsules again after climate storage. The aerodynamic fine particle fraction (FPF) in the emitted dose from the HandiHaler® was measured using Andersen impactors according to European Pharmacopoeia (EP) and US Pharmacopoeia (USP). All analytical work were then performed according to standardized methods using a state of the art High Performance Liquid Chromatograph (HPLC) system.
Aerodynamic fine particle fraction of metered and delivered dose out of Handihaler® using Atrovent® formulation powder was analyzed. Transfer of powder from and back into originator capsules was performed in relative humidity below 10%. The test was performed with 4 kPa pressure drop over the HandiHaler® at room temperature and laboratory ambient conditions.
An in-use stability test was carried out of the aerodynamic fine particle fraction of metered and delivered dose out of Handihaler®. From the blister holding the Atrovent® capsules the powder was transferred to a medium moisture barrier container and sealed. The containers were put for 1 month in 25° C. and 60% Rh. The container holding the powder was then put in an exicator for 2 h before tests were performed. The inhaler test was performed with 4 kPa pressure drop over the HandiHaler® at room temperature and laboratory ambient conditions. […]

Regarding `CC(C)[N+]1(C)[C@@H]2CC[C@H]1CC(OC(=O)C(CO)c1ccccc1)C2.[Br-]` (stereo partly shown) [ipratropium bromide], the “Moisture sensitivity (drop in fine particle dose, FPD)” value is listed as “very moisture sensitive”.
